Assay [1] addresses T1, Eukaryotic translation initiation factor 2-alpha kinase 3 (Homo sapiens, UniProt Q9NZJ5).
T1 sequence (Q9NZJ5 whole entry): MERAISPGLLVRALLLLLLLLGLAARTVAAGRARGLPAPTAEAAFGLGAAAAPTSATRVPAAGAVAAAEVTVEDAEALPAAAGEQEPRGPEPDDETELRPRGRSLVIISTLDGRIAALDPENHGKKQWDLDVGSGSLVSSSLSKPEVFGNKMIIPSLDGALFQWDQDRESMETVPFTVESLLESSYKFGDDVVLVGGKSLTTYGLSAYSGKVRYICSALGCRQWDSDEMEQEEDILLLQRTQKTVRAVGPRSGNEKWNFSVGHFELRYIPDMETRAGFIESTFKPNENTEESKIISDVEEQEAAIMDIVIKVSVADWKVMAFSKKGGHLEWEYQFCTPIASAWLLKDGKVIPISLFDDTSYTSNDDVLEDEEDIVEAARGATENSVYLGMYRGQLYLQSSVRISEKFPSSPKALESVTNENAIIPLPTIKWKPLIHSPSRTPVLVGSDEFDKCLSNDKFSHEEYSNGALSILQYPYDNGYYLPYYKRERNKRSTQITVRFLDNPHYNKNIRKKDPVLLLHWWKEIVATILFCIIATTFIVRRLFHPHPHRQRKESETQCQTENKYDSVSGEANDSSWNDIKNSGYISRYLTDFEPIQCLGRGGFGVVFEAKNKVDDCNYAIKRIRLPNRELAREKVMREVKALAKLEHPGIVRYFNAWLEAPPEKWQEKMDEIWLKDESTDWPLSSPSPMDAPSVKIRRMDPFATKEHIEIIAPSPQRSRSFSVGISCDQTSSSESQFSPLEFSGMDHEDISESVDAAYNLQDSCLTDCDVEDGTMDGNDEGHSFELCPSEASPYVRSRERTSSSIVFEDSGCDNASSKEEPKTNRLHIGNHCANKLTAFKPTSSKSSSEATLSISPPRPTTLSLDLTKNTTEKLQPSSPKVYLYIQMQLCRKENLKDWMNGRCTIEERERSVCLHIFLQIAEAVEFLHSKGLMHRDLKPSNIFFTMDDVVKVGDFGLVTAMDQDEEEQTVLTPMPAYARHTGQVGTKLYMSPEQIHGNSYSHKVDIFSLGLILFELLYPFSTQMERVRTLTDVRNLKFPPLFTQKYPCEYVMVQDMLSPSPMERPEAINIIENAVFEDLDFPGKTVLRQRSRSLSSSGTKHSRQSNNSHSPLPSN
The experiment in a line: Dose response cell-based high-throughput screening assay to measure PERK inhibition. [Related pubchem assays: 1416 ]. In kind it is functional.

The target in assay [2] is T1, Eukaryotic translation initiation factor 2-alpha kinase 3. The experiment in a line: Counterscreen assay for PERK inhibitors: Dose response cell-based high throughput screening assay to measure inhibition of PERK at 6 hours. [Related pubchem assays: 1522, 1416 ]. It is filed as functional.
Assay [3] in a line: inhibitors of Bluetongue virus cytopathic effect, confirmation, arbovirus, BSR cells (AID 1250).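 Also: protection from viral cytopathic effect measured as cell viability by ATP luminescence.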 In kind it is functional.
The target in assay [4] is T2, Apoptotic protease-activating factor 1 (Homo sapiens, UniProt O14727).
T2 sequence (O14727 whole entry): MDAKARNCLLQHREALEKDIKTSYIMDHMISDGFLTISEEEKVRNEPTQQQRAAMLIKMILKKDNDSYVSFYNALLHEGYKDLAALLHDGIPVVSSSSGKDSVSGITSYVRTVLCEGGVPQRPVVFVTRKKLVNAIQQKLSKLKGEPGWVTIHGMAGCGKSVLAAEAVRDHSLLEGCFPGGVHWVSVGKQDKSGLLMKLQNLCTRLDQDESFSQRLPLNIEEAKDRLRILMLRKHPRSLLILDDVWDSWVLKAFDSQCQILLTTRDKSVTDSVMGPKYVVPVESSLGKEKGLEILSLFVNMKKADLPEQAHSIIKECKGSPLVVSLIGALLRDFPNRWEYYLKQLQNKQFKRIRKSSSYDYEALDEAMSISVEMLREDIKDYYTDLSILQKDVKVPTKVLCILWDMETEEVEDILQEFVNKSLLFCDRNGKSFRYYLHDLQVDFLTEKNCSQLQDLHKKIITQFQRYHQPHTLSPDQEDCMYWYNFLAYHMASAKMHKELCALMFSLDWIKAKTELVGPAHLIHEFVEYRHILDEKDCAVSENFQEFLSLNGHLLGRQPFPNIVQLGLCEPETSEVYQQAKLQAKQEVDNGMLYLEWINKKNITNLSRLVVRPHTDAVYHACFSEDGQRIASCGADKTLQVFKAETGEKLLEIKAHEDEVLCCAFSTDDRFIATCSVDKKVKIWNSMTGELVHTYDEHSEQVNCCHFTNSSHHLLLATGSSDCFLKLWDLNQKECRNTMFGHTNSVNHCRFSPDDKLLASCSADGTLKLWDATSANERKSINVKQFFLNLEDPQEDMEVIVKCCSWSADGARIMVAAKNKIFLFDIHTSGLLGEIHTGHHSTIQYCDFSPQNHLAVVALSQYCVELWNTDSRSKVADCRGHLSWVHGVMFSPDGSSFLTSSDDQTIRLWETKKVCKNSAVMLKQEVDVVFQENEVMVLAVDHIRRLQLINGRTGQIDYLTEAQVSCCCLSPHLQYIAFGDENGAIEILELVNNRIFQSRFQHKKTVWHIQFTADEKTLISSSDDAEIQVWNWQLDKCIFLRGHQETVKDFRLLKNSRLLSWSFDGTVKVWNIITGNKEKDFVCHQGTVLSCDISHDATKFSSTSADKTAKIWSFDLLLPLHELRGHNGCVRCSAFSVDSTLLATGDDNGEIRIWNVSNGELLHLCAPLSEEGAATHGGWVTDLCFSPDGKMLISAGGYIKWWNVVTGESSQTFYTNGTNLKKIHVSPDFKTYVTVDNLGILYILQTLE
It is filed as functional.

The target in assay [5] is T3, Neuropeptide Y receptor type 1 (Homo sapiens, UniProt P25929).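 Also: HEK293 cells with a CNG channel challenged with NPY then isoproterenol; potency as antagonist that reverses NPY suppression of cAMP signal.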
T3 sequence (P25929 whole entry): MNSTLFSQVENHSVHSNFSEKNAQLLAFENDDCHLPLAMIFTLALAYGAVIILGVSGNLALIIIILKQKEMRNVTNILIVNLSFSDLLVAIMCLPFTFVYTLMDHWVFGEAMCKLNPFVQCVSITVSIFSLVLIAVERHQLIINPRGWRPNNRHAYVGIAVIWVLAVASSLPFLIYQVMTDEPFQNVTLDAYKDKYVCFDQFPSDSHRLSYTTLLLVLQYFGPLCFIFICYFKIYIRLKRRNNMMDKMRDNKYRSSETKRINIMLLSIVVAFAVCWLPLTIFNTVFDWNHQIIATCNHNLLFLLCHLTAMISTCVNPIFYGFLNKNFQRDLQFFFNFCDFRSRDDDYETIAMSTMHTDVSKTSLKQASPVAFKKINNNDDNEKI
It is filed as functional.

Assay [6] has as its target T4, Luciferin 4-monooxygenase (Photinus pyralis, UniProt P08659). The experiment in a line: firefly luciferase enzyme inhibitors, dose response, biochemical, luminescence (AID 1891).
A short description of assay [7]: Luminescence Cell-Based Dose Confirmation HTS to Identify Inhibitors of Platelet Dense Granule Release. [Related pubchem assays: 1663 (Primary HTS), 1678 (Summary of Project)]. It is filed as functional.
Another assay deals with H9c2. The experiment in a line: cells. In kind it is functional, cell-based. Particulars: Rattus norvegicus, H9c2, Myocardium.
The target of assay [8] is T5, Neuropeptide Y receptor type 2 (Homo sapiens, UniProt P49146).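 Also: HEK293 cells expressing the receptor and a CNG channel; stimulus was NPY near EC95 followed by isoproterenol to raise cAMP; antagonist potency measured as restoring cAMP signal that NPY suppresses.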
T5 sequence (P49146 whole entry): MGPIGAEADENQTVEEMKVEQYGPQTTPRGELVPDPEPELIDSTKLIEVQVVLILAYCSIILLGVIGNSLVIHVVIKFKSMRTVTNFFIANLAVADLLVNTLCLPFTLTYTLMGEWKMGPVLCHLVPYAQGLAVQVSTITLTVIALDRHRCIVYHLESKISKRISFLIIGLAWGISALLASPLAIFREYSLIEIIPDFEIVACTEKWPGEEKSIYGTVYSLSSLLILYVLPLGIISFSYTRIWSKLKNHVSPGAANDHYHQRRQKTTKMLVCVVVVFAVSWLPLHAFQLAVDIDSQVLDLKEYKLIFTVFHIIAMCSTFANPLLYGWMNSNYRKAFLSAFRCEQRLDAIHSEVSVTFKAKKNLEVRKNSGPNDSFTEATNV
In kind it is functional, cell-based.

The subject of another assay is HeLa. The experiment in a line: HeLa cell cytotoxicity, dose response, cytotoxicity control, 24 h, cherry-picked samples (AID 504726).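 Also: potency for cytotoxicity as loss of luminescence signal.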 It is filed as functional, cell-based. The note with it: Homo sapiens.
The target of assay [9] is T4, Luciferin 4-monooxygenase. The experiment in a line: Counter Screen for Luciferase-based Assay Positives. [Related pubchem assays: 620, 618, 411 ].
The next assay concerns HT-1080. The experiment in a line: cytotoxicity in HT1080 fibrosarcoma cells, cell-based, fluorescence readout (AID 620). Particulars: Homo sapiens. In kind it is functional.
Assay [10] addresses T6, Eukaryotic translation initiation factor 4H (Homo sapiens, UniProt Q15056). The experiment in a line: human eIF4H binding inhibitors, primary screen, translation initiation inhibitor project, biochemical, uHTS, fluorescence polarization (AID 2012).
The target of assay [11] is T7, Polyadenylate-binding protein 1 (Homo sapiens, UniProt P11940). The experiment in a line: PABP inhibition in translation initiation, SAR follow-up (AID 435018). In kind it is functional.
T7 sequence (P11940 whole entry): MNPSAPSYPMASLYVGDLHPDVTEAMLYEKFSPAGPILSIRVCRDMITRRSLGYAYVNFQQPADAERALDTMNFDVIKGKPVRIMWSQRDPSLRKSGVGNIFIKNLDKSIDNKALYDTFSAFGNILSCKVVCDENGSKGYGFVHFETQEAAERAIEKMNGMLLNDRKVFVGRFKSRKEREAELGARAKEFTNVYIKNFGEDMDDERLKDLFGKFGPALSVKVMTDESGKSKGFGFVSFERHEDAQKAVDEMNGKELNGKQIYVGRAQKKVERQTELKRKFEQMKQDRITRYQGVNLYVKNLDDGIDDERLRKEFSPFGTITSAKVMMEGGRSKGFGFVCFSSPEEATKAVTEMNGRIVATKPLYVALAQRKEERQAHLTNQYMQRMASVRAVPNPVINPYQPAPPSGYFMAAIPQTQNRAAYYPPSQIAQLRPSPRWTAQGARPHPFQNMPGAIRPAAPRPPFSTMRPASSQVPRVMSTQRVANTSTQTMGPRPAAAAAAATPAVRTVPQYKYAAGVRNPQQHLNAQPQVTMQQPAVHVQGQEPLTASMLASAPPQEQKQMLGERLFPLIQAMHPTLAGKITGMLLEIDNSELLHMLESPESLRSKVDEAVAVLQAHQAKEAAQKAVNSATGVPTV
Assay [12] has as its target T7, Polyadenylate-binding protein 1. The experiment in a line: PABP poly(A) RNA binding inhibitors, primary screen, biochemical, fluorescence polarization, uHTS (AID 2014).
Assay [13] deals with T6, Eukaryotic translation initiation factor 4H. The experiment in a line: eIF4H inhibition in translation initiation, SAR follow-up (AID 435011). It is filed as functional.
Assay [14] addresses T8, Alkaline phosphatase, tissue-nonspecific isozyme (Homo sapiens, UniProt P05186).
T8 sequence (P05186 whole entry): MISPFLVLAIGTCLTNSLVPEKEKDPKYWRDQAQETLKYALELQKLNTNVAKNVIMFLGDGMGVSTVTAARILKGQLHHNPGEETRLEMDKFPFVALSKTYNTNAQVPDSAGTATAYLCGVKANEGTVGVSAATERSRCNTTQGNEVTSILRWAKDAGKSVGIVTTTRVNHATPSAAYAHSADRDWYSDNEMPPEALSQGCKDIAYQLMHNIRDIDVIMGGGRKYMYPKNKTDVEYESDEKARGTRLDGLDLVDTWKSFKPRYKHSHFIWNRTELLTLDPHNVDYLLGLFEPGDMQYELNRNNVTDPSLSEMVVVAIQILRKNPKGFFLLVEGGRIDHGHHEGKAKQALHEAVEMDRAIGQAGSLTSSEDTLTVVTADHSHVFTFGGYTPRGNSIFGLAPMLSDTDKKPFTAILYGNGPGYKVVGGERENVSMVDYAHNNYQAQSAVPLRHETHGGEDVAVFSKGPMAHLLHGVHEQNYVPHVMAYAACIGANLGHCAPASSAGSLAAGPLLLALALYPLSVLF

Assay [15] concerns the target T9, RNA-binding protein pos-1 (Caenorhabditis elegans, UniProt G5EF15).
T9 sequence (G5EF15 whole entry): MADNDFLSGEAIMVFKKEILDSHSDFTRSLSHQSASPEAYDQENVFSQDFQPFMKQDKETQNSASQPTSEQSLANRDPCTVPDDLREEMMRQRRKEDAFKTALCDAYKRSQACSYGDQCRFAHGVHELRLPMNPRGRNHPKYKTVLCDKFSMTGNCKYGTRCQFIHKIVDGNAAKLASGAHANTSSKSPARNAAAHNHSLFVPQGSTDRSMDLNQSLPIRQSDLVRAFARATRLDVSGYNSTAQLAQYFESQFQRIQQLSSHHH
The experiment in a line: inhibitors of POS-1/mex-3 RNA binding, dose response, biochemical, fluorescence polarization (AID 1964).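 Also: purified POS-1 fused to maltose binding protein made in E. coli; potency of compounds blocking POS-1 binding to fluorescent RNA.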

Calls of active or inactive are those of the source.

T4 sequence (P08659 whole entry): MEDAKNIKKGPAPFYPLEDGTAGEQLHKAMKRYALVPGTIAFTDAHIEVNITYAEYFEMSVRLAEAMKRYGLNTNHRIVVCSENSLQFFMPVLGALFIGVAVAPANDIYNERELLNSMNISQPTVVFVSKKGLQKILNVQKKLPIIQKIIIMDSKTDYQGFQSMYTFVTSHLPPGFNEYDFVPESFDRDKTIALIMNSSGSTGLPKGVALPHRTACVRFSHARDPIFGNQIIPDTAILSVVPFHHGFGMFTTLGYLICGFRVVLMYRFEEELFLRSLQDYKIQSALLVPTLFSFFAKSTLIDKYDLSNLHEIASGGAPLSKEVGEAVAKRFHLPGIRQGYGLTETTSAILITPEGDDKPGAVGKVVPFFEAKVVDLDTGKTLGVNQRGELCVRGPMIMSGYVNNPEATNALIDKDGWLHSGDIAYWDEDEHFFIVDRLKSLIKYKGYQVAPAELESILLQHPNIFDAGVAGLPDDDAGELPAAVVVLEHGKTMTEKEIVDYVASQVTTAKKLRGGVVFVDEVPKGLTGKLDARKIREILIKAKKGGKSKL

`O=C(CCCC(=O)N/N=C/c1ccccc1C(=O)O)N/N=C/c1ccccc1C(=O)O`: the EC50 in assay [1] and in assay [2] was > 55.7 µM (not active) throughout.
Turning to `Oc1cc(CSc2nnnn2-c2ccccc2)nc(Nc2ccc(F)cc2)n1`, the IC50 in [3] was 38.2 µM (active).
Regarding `Cc1ccc(-c2nn3c(C)nnc3c3ccccc23)cc1S(=O)(=O)NC(C)c1ccccc1` (configuration not stated), the IC50 in assay [4] was 7.48 µM (active); in assay [5], 20.3 µM (not active); in the assay with H9c2, 35.8 µM (inactive); in assay [8] it was 10.4 µM (not active). Besides, the EC50 in assay [6] and in assay [7] was > 112 µM (not active) in each case.
In the case of `COc1ccc(-c2cc(-c3ccc(Br)cc3)nc3ncnn23)cc1OC`, in [3], the half-maximal inhibitory concentration (IC50) was 52.8 µM (active).
With `O=C(NNc1nc2ccccc2s1)C1CC1`, the EC50 in assay [1] and in assay [2] was > 55.7 µM (not active) in each case.
On to `NNc1nnc2c3cc(F)ccc3n(Cc3ccccc3)c2n1`, for which the AC50 in the assay on HeLa is 217 µM (active).
As to `COC(=O)c1ccc(-c2nc3cc(N)ccc3o2)cc1`, the results for the EC50 (in assay [9]; in the assay on HT-1080) were 0.2 µM (active) and > 50 µM (not active), respectively.
On to `Cc1ccc(NC(=O)CN2C(=O)N/C(=C/c3ccccc3OCc3cccc(C(=O)O)c3)C2=O)cc1`, for which the IC50 in [10] is 11.1 µM (active); in assay [11], > 100 µM (inactive); in assay [12], > 100 µM (inactive); in [13], 8.36 µM (active).
On to `Nc1ccc(S(=O)(=O)NNC(=O)C(=O)NNc2ccccn2)cc1`, for which the EC50 is 26.5 µM (active) in assay [14] and 137 µM (active) in assay [15].
As for `Cc1cc(C(=O)NNC(=O)CCCCC(=O)NNC(=O)c2cc(C)n[nH]2)[nH]n1`, the EC50 in [14] was 15.5 µM (active).

For the origin of these results see ChEMBL document CHEMBL1201862, “PubChem BioAssay data set” (2004).
